In US20250177400A1, “METHODS OF THERAPEUTICS DEVELOPMENT OF GLIOBLASTOMA MULTIFORME BY QUINAZOLINE DERIVATIVES AND THEREOF” (priority 2023, published 2025):
“Also recorded” adds a separate entry of the source. Where two headings read alike, the source gives them in different places.

Key:
[1] = system: Glioblastoma multiforme (GBM) cells (T98-G); assay: Induction of apoptosis in cultured glioblastoma multiforme cells (microscopy); type: cell-based, human; details: for induction of apoptosis in GBM cells: T98-G cells, 50 and 100 μM, three days, compared to vehicle control
Method: FIG. 2 depicts a novel quinazoline derivative (Compound 1:6-Pyridin-2-yl -5,6-dihydro-benzo[4,5]imidazo[1,2-c]quinazoline) that induces apoptosis in Glioblastoma (GBM) cells. Cells were treated with different concentrations of Compound 1 (0.1, 1, 10, 50, 100μ) or vehicle (control).
(§1) Glioblastoma multiforme (GBM) cells (T98-G) were cultured in 6 wells for ˜90% confluent. Cells were treated with different concentrations of Compound 1 (0.1, 1, 10, 50, 100μ) or vehicle (control). […] Cell viability was tested by trypan blue exclusion assay.
(§2) GBM cell line T98-G (ATCC-CRL-1690) was obtained and authenticated by the American Type Culture Collection (Cat #30-2003; ATCC, Manassas, VA). Cells were cultured and maintained in low glucose Dulbecco's Modified Eagle Medium (DMEM) (Thermo Fisher Scientific) supplemented with 10% fetal bovine serum (FBS, Thermo Fisher Scientific) at 37° C. in a 5% CO2 humidified atmosphere and passed in less than 6 months. Human neuroblastoma cells. Human SH-SY5Y neuroblastoma cells (Sigma-Aldrich) were cultured in 45% F12K, 45% Modified Eagle Medium (MEM), supplemented with 10% FBS in tissue culture incubator (37° C., 5% CO2, 90% humidity). Primary skin fibroblasts. Primary skin fibroblasts were obtained from the Coriell Institute for Medical Research (Camden, NJ; Cat #AG09555; the Aging Cell Culture Repository of the National Institute on Aging) and maintained in DMEM with low glucose (Invitrogen, Grand Island, NY) supplemented with 10% FBS in 6-well culture plates (37° C., 5% CO2, 90% humidity) until reaching 90-100% confluence. In addition, cells were treated with either vehicle, 50, and 100 μM quinazoline derivatives and propentofylline. The condition of the cultured cells was monitored with an inverted cell culture microscope (Westover Digital AMID Model 2000, Westover Scientific, Bothell, WA), controlled by a computer, and images were captured with image acquisition software (Micron 2.0.0, Westover Scientific).

[2] = system: Glioblastoma multiforme (GBM) cells (T98-G); assay: Cell viability by trypan blue exclusion assay; type: cell-based, human; details: 50 and 100 μM, 3 days
Method: FIG. 3 depicts concentration dependence cell viability of human glioblastoma multiforme (GBM) cells by novel quinazoline derivative (Compound 1: 6-Pyridin-2-yl-5,6-dihydro-benzo[4,5]imidazo[1,2-c]quinazoline).
as §1
as §2, with “Primary skin fibroblasts were obtained from the Coriell Institute for Medical Research (Camden, NJ; Cat #AG09555; the Aging Cell Culture Repository of the National Institute on Aging) and maintained in DMEM with low glucose (Invitrogen, Grand Island, NY) supplemented with 10% FBS in 6-well culture plates (37° C., 5% CO2, 90% humidity) until reaching 90-100% confluence. In addition, cells were treated with either vehicle, 50, and 100 μM quinazoline derivatives and propentofylline.” left out

GBM cells [3] = assay: Model tumor spheroid assay: GBM cell invasion in three-dimensional Matrigel matrix; type: cell-based, human; details: 3D Matrigel matrix; for invasive cells in multicellular spheroids: 50 μM
Text: FIG. 5 depicts the Human glioblastoma multiforme (GBM) cell invasion in a three-dimensional Matrigel basement membrane. Model Tumor Spheroid assay: GBM cells form a spheroid tumor-like biological entity in three-dimensional space. Proliferation and invasion of GBM in 3-dimensional Matrigel matrix in 5 days (A) and 12 days (B). Arrows indicate invasive cells in model tumor spheroids. The proliferation and invasion of GBM in a three-dimensional Matrigel matrix have been studied for days. […] Arrows indicate invasive cells.
GBM cells were incubated in a previously prepared 3-dimensional Matrigel matrix. Multicellular spheroids were formed after three days of incubation. The mechanical properties of cell invasion of patient-derived primary glioblastoma cells have been studied recently in 3-D matrigel matric (Grundy et al., 2016). Cellular invasiveness was monitored in multicellular spheroids of GBM embedded in 3D matrigel matric (FIG. 5).

integrin β1 (CD29) = assay: Western blot of integrin β1 levels in GBM cells; type: cell-based, human; details: normalized with β-tubulin, similar concentrations
Text: FIG. 6 depicts a novel quinazoline derivative (Compound 1:-Pyridin-2-yl -5,6-dihydro-benzo[4,5]imidazo[1,2-c]quinazoline) that decreases glioblastoma cell invasion by decreasing integrin β1 (CD29) levels. Intergrin β1 band decreased in Western blot analyses both in normal culture (A), and serum-free condition (B) by the treatment of compound 1. Propentofylline treatment produces reverse effects (A). Relative expression levels of integrin β1 is normalized with β-tubulin as a loading control in Western blot analyses. […] Standard Error of Mean (SEM) is calculated from three independent measurements.
Integrins have an important role to play in cell invasion in tumorigenic environments. […] We also compared the effectiveness of reducing β1 integrin level with propentofylline in the same concentration. […] Deletion of β1 integrin reduced tumorigenesis in in-vivo xenograft tumor growth animal model (Hou et al., 2016).
Reagents and antibodies: Propentofylline (molecular weight 306.366; [1-(5O-oxohexyl)-3-methyl-7-propylxanthine) was purchased from Sigma-Aldrich (St. Louis). Propentofylline and synthetic quinazoline derivatives were dissolved in DMSO (30-60 mM, depending on solubility). Aliquots were stored at −20 C. Stock solutions were dissolved in a culture medium at different concentrations just before each experiment. Rabbit monoclonal anti-Integrin beta 1 [CD29] antibody (Cat #04-1109) was purchased from Millipore (Temecula, CA). Anti-tubulin III antibody (Cat #79-720) was purchased from ProSci (Poway, CA). Antibody for PKCε (C-15) (Santa Cruz Biotechnology, Santa Cruz, CA; Cat No: sc-214) was used to detect PKCε and has been recommended for detection of PKCε of human origin by western blotting and immunofluorescence analysis by the manufacturer. Quinazoline derivatives were synthesized in the laboratory.

PKCε = molecular target: T1, PKCε (Homo sapiens, UniProt Q02156); assay: PKCε activity (membrane/cytosol ratio) in neuroblastoma cells; type: cell-based; details: SHSY5Y cells
T1 construct: host or cells: SH-SY5Y human neuroblastoma cells
T1 sequence (Q02156 1-737): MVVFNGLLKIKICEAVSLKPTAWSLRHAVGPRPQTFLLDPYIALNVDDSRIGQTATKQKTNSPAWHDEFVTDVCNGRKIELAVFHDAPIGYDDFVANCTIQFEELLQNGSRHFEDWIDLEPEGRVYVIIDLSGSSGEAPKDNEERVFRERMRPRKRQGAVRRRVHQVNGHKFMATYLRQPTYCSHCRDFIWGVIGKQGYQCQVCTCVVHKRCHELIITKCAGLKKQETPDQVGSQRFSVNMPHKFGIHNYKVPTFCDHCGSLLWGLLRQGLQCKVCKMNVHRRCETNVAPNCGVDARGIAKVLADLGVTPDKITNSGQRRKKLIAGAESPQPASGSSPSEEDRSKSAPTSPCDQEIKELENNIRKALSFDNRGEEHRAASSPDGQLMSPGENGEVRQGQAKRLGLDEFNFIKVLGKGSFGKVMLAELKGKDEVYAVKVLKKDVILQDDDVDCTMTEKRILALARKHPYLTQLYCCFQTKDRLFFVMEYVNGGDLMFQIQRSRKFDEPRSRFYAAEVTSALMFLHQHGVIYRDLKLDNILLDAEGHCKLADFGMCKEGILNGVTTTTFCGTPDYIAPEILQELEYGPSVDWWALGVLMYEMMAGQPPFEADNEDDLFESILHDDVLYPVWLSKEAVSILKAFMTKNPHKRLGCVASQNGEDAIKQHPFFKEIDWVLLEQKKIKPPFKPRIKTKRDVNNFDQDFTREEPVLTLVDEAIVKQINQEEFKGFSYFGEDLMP
Method: FIG. 7 depicts how novel quinazoline derivative decreases oncogenic PKCε activity in neuroblastoma cells. C=concentration of PKCε in cytosol fraction, and M=concentration of PKCε in membrane fraction of cells. PKCε activity was measured as the ratio of the concentration in the membrane and cytosol fraction.
Novel quinazoline derivative decreases oncogenic PKCepsilon (PKCε) activity in neuroblastoma cells (FIG. 7). We tested whether novel quinazoline derivatives can decrease oncogenic PKCε activity. […] Oncogenic PKCε is a survival kinase for GBM cells (Okhrimentko et al., 2005).
GBM cell line T98-G (ATCC-CRL-1690) was obtained and authenticated by the American Type Culture Collection (Cat #30-2003; ATCC, Manassas, VA). Cells were cultured and maintained in low glucose Dulbecco's Modified Eagle Medium (DMEM) (Thermo Fisher Scientific) supplemented with 10% fetal bovine serum (FBS, Thermo Fisher Scientific) at 37° C. in a 5% CO2 humidified atmosphere and passed in less than 6 months. Human neuroblastoma cells. […] The condition of the cultured cells was monitored with an inverted cell culture microscope (Westover Digital AMID Model 2000, Westover Scientific, Bothell, WA), controlled by a computer, and images were captured with image acquisition software (Micron 2.0.0, Westover Scientific). […]

[4] = system: human normal primary skin fibroblasts; assay: Toxicity to cultured normal primary skin fibroblasts; type: cell-based
Method: FIG. 8 depicts the non-toxicity of Compound 1.
Insignificant toxicity was found for the quinazoline derivative (Compound 1): One quinazoline derivative (Compound 1) was non-toxic to cultured normal primary skin fibroblasts isolated from healthy individuals (FIG. 8). After three days of continuous treatment by 100 μM Compound 1, there was no cell death.
GBM cell line T98-G (ATCC-CRL-1690) was obtained and authenticated by the American Type Culture Collection (Cat #30-2003; ATCC, Manassas, VA). Cells were cultured and maintained in low glucose Dulbecco's Modified Eagle Medium (DMEM) (Thermo Fisher Scientific) supplemented with 10% fetal bovine serum (FBS, Thermo Fisher Scientific) at 37° C. in a 5% CO2 humidified atmosphere and passed in less than 6 months. Human neuroblastoma cells. Human SH-SY5Y neuroblastoma cells (Sigma-Aldrich) were cultured in 45% F12K, 45% Modified Eagle Medium (MEM), supplemented with 10% FBS in tissue culture incubator (37° C., 5% CO2, 90% humidity). Primary skin fibroblasts. […] The condition of the cultured cells was monitored with an inverted cell culture microscope (Westover Digital AMID Model 2000, Westover Scientific, Bothell, WA), controlled by a computer, and images were captured with image acquisition software (Micron 2.0.0, Westover Scientific).

GBM cells [5] = details: 2012, cited from earlier work; for GBM cell invasion and survival: Dhruv et al., 2016, Jacob et al.
[6] = system: Glioblastoma multiforme (GBM); details: cited from earlier work

With c1ccc(C2Nc3ccccc3-c3nc4ccccc4n32)nc1 (centres unmarked) [Compound 1, 6-Pyridin-2-yl-5,6-dihydro-benzo[4,5]imidazo[1,2-c]quinazoline] the “potency for inducing apoptosis / inhibiting GBM survival compared with Propentofylline” value ([1]; GBM cells, FIG. 4) was “more potent for inhibiting GBM survival than Propentofylline; also recorded: more potent than Propentofylline to induce apoptosis”, the “induction of apoptosis in GBM cells” value [1] was “induced significant apoptosis; also recorded: induce apoptosis; also recorded: caused significant apoptosis” and the “cell viability (trypan blue exclusion)” value [2] was “Cell viability was reduced”. For the same compound, the “invasive cells in multicellular spheroids” value (GBM cells [3]) was “no invasive cells”, the “potency for reducing tumor size and cell invasion compared with Propentofylline” value (GBM cells [3]; 5th day) was “more potent than Propentofylline in terms of reducing tumor size and cell invasion; also recorded: more potent inhibitor of GBM cell invasion” and the “integrin β1 expression level” value (integrin β1 (CD29)) was “significantly decreases integrin β1 expression level; also recorded: decreasing β1 integrin (CD29) levels; also recorded: significantly reduced expression levels of β1-Integrin”. For the same compound, the “PKCε activity (ratio of concentration in membrane and cytosol fraction)” value (PKCε) was “significantly decreased the PKCε activity”, the “cell death of primary skin fibroblasts” value ([4]; 100 μM, three days of continuous treatment) was “no noticeable cell death” and the “toxicity to primary human skin fibroblasts” value ([4]; cultured normal primary skin fibroblasts from healthy individuals) was “non-toxic”.
For c1c[nH]c(-c2nc3ccccc3c3nc4ccccc4n23)c1 [Compound 7, 6-(1H-Pyrrol-2-yl)-benzo[4,5]imidazo[1,2-c]quinazoline], the “induction of apoptosis in GBM cells” value [1] was “caused significant apoptosis”.
For CCCn1cnc2c1c(=O)n(CCCCC(C)=O)c(=O)n2C [Propentofylline, 1-(5O-oxohexyl)-3-methyl-7-propylxanthine], the “induction of apoptosis in GBM cells” value [1] was “did not induce apoptosis”, the “invasive cells in multicellular spheroids” value (GBM cells [3]) was “Invasive cells were sprouting outside of the spheroid” and the “integrin β1 expression level” value (integrin β1 (CD29)) was “not able to reduce β1 integrin level”. The “integrin β1 expression level” value (integrin β1 (CD29); listed as propentofylline) was “significantly increases integrin β1 expression levels; also recorded: increased expression levels of β1-Integrin”, the “GBM cell invasion and survival” value (GBM cells [5]) was “decreasing GBM cell invasion and survival” and the “GBM cell invasion and survival” value (GBM cells [5]; listed as propentofylline) was “decreased GBM cell invasion; also recorded: inhibits GBM survival”. For the same compound, the “induction of apoptosis in GBM cells” value (GBM cells [5]; Jacobs et al.) was “ineffective inducing apoptosis”.
In the case of Cn1nnc2c(C(N)=O)ncn2c1=O [TMZ, temozolomide], the common side effects ([6]; patients) is listed as “bone marrow suppression, genotoxic, and teratogenic”.
For “Bevacizumab: FDA-approved immunotherapeutic agent; therapeutic antibody (Genentech)”, the “progression-free survival at 6 months” value ([6]; GBM patients, % of cases) is given as 36%, the overall survival ([6]; GBM patients) is given as 9.3 months and the gastrointestinal perforation ([6]; human, in vivo) is given as 1.5-5.4%. For the same compound, the hypertension ([6]; human, in vivo) was 5.5-11.4%, the proteinuria ([6]; human, in vivo) was 2.7-11.4% and the thromboembolic events ([6]; human, in vivo) was 3.2-11.9%. The wound healing complications ([6]; human, in vivo) was 0.8-3.3% and the “patients who developed therapeutic resistance” value ([6]; phase II clinical trial (Vredenburgh et al., 2007)) was 40%.
